Laboratory results: article PMC8389655, “Au2phen and Auoxo6, Two Dinuclear Oxo-Bridged Gold(III) Compounds, Induce Apoptotic Signaling in Human Ovarian A2780 Cancer Cells” (Biomedicines, 2021)

What was measured:
[1] = system: lactate production of A2780 cells; experiment: Lactate production assay (K-LATE kit) in culture medium; format: cell-based, human; conditions: A2780, 24 h treatment at 72 h IC50 dose, vs controls
Description: The lactate amount was measured in cell culture media after 24 h of treatment with K-LATE kit (Megazyme, Bray, Ireland) according to the data sheet provided by the manufacturer. Lactate content was normalized on the protein content of the same sample.

[2] = system: thioredoxin reductase (TrxR); conditions: for effect on TrxR enzyme activity: A2780, 12 h treatment at 72 h IC50 dose; for inhibition of TrxR enzyme activity: A2780, 24 h treatment at 72 h IC50 dose, vs controls
Description: The total thioredoxin reductase (TrxR) activity was measured using a commercial colorimetric assay kit (#CS0170, Sigma Aldrich, St. Louis, MO, USA) based on the reduction of 5,5′-dithiobis (2-nitrobenzoic) acid (DTNB) with NADPH to 5-thio-2 nitrobenzoic acid (TNB) at 412 nm. This kit also contains an inhibitor solution of mammalian thioredoxin reductase. Since several enzymes present in the biological sample can reduce DTNB, the specific inhibitor is used to determine the reduction of DTNB due only to TrxR activity. […] Cells were lysed with RIPA buffer (50 mM Tris-HCl pH 7.0, 1% (v/v) NP-40, 150 mM NaCl, 2 mM ethylene glycol bis(2-aminoethyl ether)tetra-acetic acid, 100 mM NaF) supplemented with a cocktail of protease inhibitors. The protein concentrations in the cell lysates were determined by Bradford protein assay kit (Bio-Rad Laboratories, Hercules, USA) according to the manufacturer’s instructions and then 30 µg samples of proteins were used for the assay. Results were normalized to the cellular protein content.

[3] = system: intracellular ROS in A2780 cells; experiment: Intracellular ROS evaluation (H2DCF-DA, flow cytometry); format: cell-based, human; conditions: A2780, 48 h treatment at 72 h IC50 dose, H2DCFDA
Description: Within the cell, H2DCF-DA is de-acetylated by cellular esterases to a non-fluorescent compound, which becomes fluorescent once it is oxidized by cellular ROS into 2′,7′-dichlorofluorescein (DCF). Cells were trypsinized, washed, and incubated with 5 µM H2DCFDA for 30 min in the dark. Then, cells were washed again and immediately analyzed using a FACSCantoII (BD Biosciences, New Jersey, USA) flow cytometer.

A2780 cells = experiment: Annexin V/propidium iodide flow cytometry (apoptosis); format: cell-based, human; conditions: A2780, 72 h exposure at IC50 dose
Description: The evaluation of cell death was carried out using the TACS annexin V/propidium iodide staining kit (Trevigen, Gaithersburg, MD, USA) according to the manufacturer’s instructions. […] After 72 h, controls and treated cells were trypsinized, washed with PBS buffer, and suspended in the staining solution for 15 min at room temperature in the dark. Cells were then washed and immediately analyzed by FACSCantoII flow cytometer (BD Biosciences, New Jersey, USA). Cells were gated and plotted on dot plots showing the distribution of annexin V-positive cells (early apoptotic cells) and annexin V/propidium iodide-positive cells (late apoptotic cells).

[4] = system: complex II-driven mitochondrial respiration; experiment: Respiratory control ratio, complex II-driven respiration in permeabilized cells; format: cell-based, human; conditions: permeabilized A2780, 24 h treatment; control about 3.0
Description: The analysis of the oxygen consumption rate (OCR) was performed using a Clark-type O2 electrode inserted in a thermostated airtight chamber (Oxygraph Plus System, Hansatech Instruments, King’s Lynn, Norfolk, UK). Briefly, control and treated cells (12 and 24 h) were trypsinized, washed with PBS, and suspended in culture medium to measure the steady state OCR for 10 min. The OCR values, expressed as nmol of consumed O2/mL/min, were normalized to the cellular protein content. To evaluate the response of complex I, complex II/III, and ATP-synthase-driven OCRs in the presence or absence of gold-treatment, we used the protocol described by Baracca et al.. Cells were trypsinized, washed, and resuspended in buffer containing sucrose, TRIS-HCl, MgSO4, EDTA, and KH2PO4. Cell suspension was treated with digitonin to allow cell membrane permeabilization. To stimulate complex I, 250 mM glutamate/malate was added, whereas to stimulate complex II, 250 mM succinate was added (state 2 respiration). Then, to induce ATP-synthase-driven mitochondrial respiration, 10 mM ADP was added (state 3 respiration). To estimate the mitochondrial respiratory capacity, defined as the respiratory control ratio (RCR), state 3/state 2 ratios were calculated for control and treated cells.

[5] = system: mitochondrial membrane potential (Δψm) in A2780 cells; experiment: Mitochondrial membrane potential (TMRM, flow cytometry); format: cell-based, human; conditions: A2780, 48 h exposure at 72 h IC50 dose, compared to controls
Description: The mitochondrial membrane potential (Δψm) was measured using tetramethylrhodamine methyl ester perchlorate (TMRM), a lipophilic potentiometric fluorescent dye that distributes between the mitochondria and cytosol in proportion to Δψm by virtue of its positive charge. The amount of accumulated dye in the mitochondria, and consequently the signal intensity, is a direct function of mitochondrial potential. […] Cells were then trypsinized, washed with PBS, and incubated with 100 nM TMRM for 20 min in the dark at 37 °C. After labelling, cells were washed again, suspended in PBS, and analyzed using a FACSCantoII flow cytometer (BD Biosciences, New Jersey, USA).

[6] = system: HEK293 (human embryonic kidney) cells; experiment: MTT antiproliferative assay on HEK cells; format: cell-based; conditions: for IC50: 72 h of treatment, MTT assay, mean ± SD of three experiments, read-out: Half-maximal inhibitory concentration (IC50), HEK293; for IC50 for HEK higher than for A2780 (fold): ratio of 72 h IC50 HEK / A2780
Description: The inhibition of cell proliferation by Au2phen, Auoxo6, and AuL12 on A2780 cell line was evaluated through MTT (3-(4,5-dimethylthiazol-2-yl)-2,5-diphenyltetrazolium bromide) test. Viable cells can convert MTT into formazan, which is coloured and detectable at 595 nm. Exponentially growing cells were seeded in 96 well-microplates at a density of 8 × 10^3 for 24 h and then gold compounds were added in fresh RPMI medium at concentrations ranging from 0.003 to 100 µM and incubated for 72 h. On the day of the test, cells were treated with 0.5 mg/mL MTT for 1 h at 37 °C. Following precipitation, blue formazan was dissolved in DMSO, and the optical density was read in a microplate reader interfaced with Microplate Manager/PV version 4.0 software (BioRad Laboratories, Hercules, USA). From the absorbance measurements, the half-maximal inhibitory concentration (IC50) value of each compound on A2780 cells was calculated using GraphPad Prism software version 6.0 (Graphpad Holdings, LLC, USA). The same protocol was applied on non-tumor cell lines, i.e., HEK and PNT1 cells.

Cc1ccc2ccc3ccc(C)[n+]4c3c2[n+]1[Au-]41[O][Au-]2([O]1)[n+]1c(C)ccc3ccc4ccc(C)[n+]2c4c31.F[P-](F)(F)(F)(F)F.F[P-](F)(F)(F)(F)F [Au2phen, ((2,9-dimethyl-1,10-phenanthroline)2Au2(µ-O)2)(PF6)2]
increase of lactate level in medium [1]: about 20%
effect on TrxR enzyme activity [2]: clear tendency to inhibit the TrxR activity, even if the changes were not statistically significant
inhibition of TrxR enzyme activity [2]: ~ 26%
ROS increase vs control cells [3]: about 3.7 fold
increase of annexin V fluorescence intensity vs untreated control cells (A2780 cells): 6 fold
respiratory control ratio (RCR), complex II-driven [4]: about 1.7
cells bearing lower Δψm (low TMRM fluorescence) [5]: about 26%
IC50 [6]: 4.18 ± 0.05 µM
IC50 for HEK higher than for A2780 (fold) [6]: 5 fold

CCOC(=O)CN(C)C1=[S+][Au-]([Br])([Br])[S]1 [AuL12, dibromo(ethylsarcosinedithiocarbamate)gold(III), reference compound]
increase of lactate level in medium [1]: ~29%
effect on TrxR enzyme activity [2]: clear tendency to inhibit the TrxR activity, even if the changes were not statistically significant
inhibition of TrxR enzyme activity [2]: about 50%
ROS increase vs control cells [3]: about 2.8 fold
increase of annexin V fluorescence intensity vs untreated control cells (A2780 cells): 5 fold
respiratory control ratio (RCR), complex II-driven [4]: about 2.4
cells bearing lower Δψm (low TMRM fluorescence) [5]: ~36%
IC50 [6]: 10.7 ± 0.36 µM
IC50 for HEK higher than for A2780 (fold) [6]: 2.7 fold

Cc1cccc2[n+]1[Au-]1([O][Au-]3([O]1)[n+]1c(C)cccc1-c1cccc(C)[n+]13)[n+]1c(C)cccc1-2.F[P-](F)(F)(F)(F)F.F[P-](F)(F)(F)(F)F [Auoxo6, ((6,6′-dimethyl-2,2′-bipyridine)2Au2(µ-O)2)(PF6)2]
increase of lactate level in medium [1]: ~25%
effect on TrxR enzyme activity [2]: clear tendency to inhibit the TrxR activity, even if the changes were not statistically significant
inhibition of TrxR enzyme activity [2]: about 50%
ROS increase vs control cells [3]: about 2.8 fold
increase of annexin V fluorescence intensity vs untreated control cells (A2780 cells): 10 fold
respiratory control ratio (RCR), complex II-driven [4]: about 1.8
cells bearing lower Δψm (low TMRM fluorescence) [5]: 17%
IC50 [6]: 6.16 ± 0.04 µM
IC50 for HEK higher than for A2780 (fold) [6]: 5 fold
